Measurements from patent US20230287068A1, “KERATIN BD-6, PREPARATION METHOD THEREFOR AND PHARMACEUTICAL COMPOSITION AND USE THEREOF” (INSTITUTE OF MATERIAL MEDICA, CHINESE ACADEMY OF MEDICAL …, priority 2019, published 2023).
Where a name gives a salt, the structure may show the parent alone. Marks after values point to notes of the source that are not given here.

What was measured:
[1] = tested on: yeast-induced fever model in rats; experiment: Yeast-induced fever model in SD rats; type: in vivo
Procedure: (§1) • Medicines: yeast (OXOID LP0021), aspirin (SIGMA A2093), protein BD-6; • Instruments: electronic balance (SARTORIUS BP121S type), electronic clinical thermometer (CITIZEN CT-513W type). • Experiment grouping: • Normal control group; • Model group: yeast fever model; • Positive control group: Aspirin 300 mg/kg group; • Protein BD-6, 10 mg/kg group, 50 mg/kg group.
(§2) Preparation of experimental animals: After the experimental animals adapt to the experimental environment (temperature 22° C.±2° C., relative humidity 50%±2%) for 1 day. Pre-adaptation to measure rectal temperature at 8:00 and 15:00, rats were fasted and water was taken freely 12 h before experiment, and let the animal to empty its feces before measuring the rectal temperature. Apply petroleum jelly to the electronic thermometer probe before each temperature measurement. Insert the rat rectum 2 cm (can be marked at 2 cm to ensure that the depth of each insertion is consistent), and record the body temperature after the reading is stable.
(§3) Subcutaneous injection of dry yeast to replicate rat fever model: The body temperature of the rats was measured before modeling. Qualified rats with a body temperature of 36.2-37.3° C. were selected and randomly divided into groups with 8 rats in each group. After oral administration of aspirin and different doses of protein BD-6, 20% yeast suspension (10 ml/kg) was injected subcutaneously immediately, and the normal control group was injected intraperitoneally with an equal volume of normal saline. The body temperatures of the rats were monitored after 2 hours for a total of 8 hours.
(§4) According to the body temperature measured at each time point on the day of the experiment, calculate the mean, standard deviation and standard error of the body temperature of each group of rats. The data of each group was compared with TTEST, and P<0.05 was considered as a significant difference.

[2] = tested on: acetic acid writhing of ICR mice; experiment: Acetic acid writhing test in ICR mice; type: in vivo
Procedure: • Animals: male ICR mice; • Drugs and reagents: aspirin, physiological saline, glacial acetic acid, protein BD-6. • Experiment grouping: • Model group; • Aspirin 300 mg/kg group; • Protein BD-6, 50 mg/kg group, 200 mg/kg group.
One day after the experimental animals adapt to the environment, Aspirin 300 mg/kg, protein BD-6 50 mg/kg, 200 mg/kg were given orally one hour in advance, and the administration volume was 10 ml/kg; Then, 0.6% acetic acid solution was injected intraperitoneally, and the incubation period (seconds) and frequency of writhing in the animal was observed within 15 minutes.
Calculate the mean and standard error of the data in each group. Compared with the model group by TTEST, P<0.05 was considered as statistically different.

[3] = tested on: lipopolysaccharide (LPS) induced fever model in rats; experiment: Lipopolysaccharide (LPS) induced fever model in SD rats; type: in vivo
Procedure: as §1, with “Animals: 230-260 grams of male SD rats; • Drugs: lipopolysaccharide (LPS, SIGMAL-2880),” for “Medicines: yeast (OXOID LP0021),”, “(SIGMAA2093),” for “(SIGMA A2093),”, “lipopolysaccharide” for “yeast”
Method: the method of intraperitoneal injection of Lipopolysaccharide to replicate rat fever model.
as §2
as §3, with “Intraperitoneal” for “Subcutaneous”, “lipopolysaccharide” for “dry yeast”, “lipopolysaccharide (20 µg/kg, 2” for “20% yeast suspension (10”, “intraperitoneally” for “subcutaneously”
as §4

[4] = tested on: PTZ-induced epilepsy in mice; experiment: Pentylenetetrazole (PTZ) induced epilepsy in mice; type: in vivo, ICR mice; details: Retigabine 60 mg/kg, PTZ 65 mg/kg i.p.
Procedure: • Animals: male ICR mice; • Medicines: Pentylenetetrazol (PTZ), Retigabine, Protein BD-6. • Experiment grouping: • Model group; • Retigabine 60 mg/kg group; • Protein BD-6, 50 mg/kg group, 200 mg/kg group;
The drug was administered once in the afternoon the day before modeling, On the day of modeling, PTZ-65 mg/kg (modeling agent) was injected intraperitoneal 1 hour after the test drug was administered intragastrically, and the positive drug can be administered once half an hour before modeling. Continue to observe for 15 minutes after injection of PTZ.
Observation index: ①Seizure situation: the time of seizures from Grade III to Grade VI; ②Death situation
(§5) Seizure grade: Refer to Racine grading standard: Grade 0: No response; Grade I: manifested as twitching of facial muscles or the corners of the mouth; Grade II: can nod; Grade III: twitching of one limb; Grade IV: rigidity or body twitching; Grade V: generalized epilepsy (generalized tonic seizures).
Count the cases of seizures and deaths in each group of mice in the experiment; Grade III and IV incubation period. The incubation period of mice that have not attacked to Grade IV is recorded as the maximum of 900 seconds. Chi-square test was used for statistics of the number of cases. Calculate the mean and standard error of the incubation period. Use TTEST to compare the model group with other groups, and P<0.05 is considered as a significant difference.

[5] = tested on: PLO-induced epilepsy in mice; experiment: Pilocarpine (PLO) induced convulsive epilepsy in mice; type: in vivo, ICR mice; design: mortality rate: unit not given here; details: Diazepam 2 mg/kg, PLO 225 mg/kg i.p.
Procedure: • Animals: male ICR mice; • Drugs: Pilocarpine HCl (PLO, pilocarpine, pilocarpine hydrochloride), Diazepam (diazepam tablets), protein BD-6. • Experiment grouping: • Model group: • Diazepam 2 mg/kg group; • Protein BD-6, 50 mg/kg group, 200 mg/kg group.
The drug was administered once in the afternoon the day before modeling, PLO-225 mg/kg (modeling agent) was injected intraperitoneally 1 hour after the test drug was administered intragastrically on the day of modeling. And positive drug can be administered once 20 minutes before modeling. Observe for 30 minutes after PLO injection.
Observation indicators: ①Seizure situation: the time of seizures from Grade II to Grade IV; ②the time to death.
as §5
Count the number of Grade IV seizures and deaths in each group of mice in the experiment; Grade II, III and IV incubation period. […] Chi-square test was used for statistics of the number of cases. The mean value and standard error of the incubation period were calculated, and TTEST was used to compare the model group with other groups. P<0.05 was considered as a significant difference.

[6] = tested on: mice cough induced by ammonia water; experiment: Antitussive test, cough induced by ammonia water in mice; type: in vivo, ICR mice
Procedure: • Animals: male ICR mice; • Drugs and reagents: dextromethorphan hydrobromide, ammonia water, 0.2% CMC-Na, protein BD-6; • Apparatus: Compressed nebulizer (403T type), balance (XS105DU type). • Experiment grouping: • Solvent control group; • Dextromethorphan 15 mg/kg group; • Protein BD-6, 20 mg/kg group, 50 mg/kg group.
Dextromethorphan and different doses of protein BD-6 (administration volume 10 ml/kg) were given orally in groups, and the solvent control group was given the same volume of distilled water. One hour later, mice were put into a sealed box and atomized 10% ammonia water for 10 seconds, and then observed and recorded the incubation period of cough in mice and the number of coughs in 2 minutes.
Record the time point of oral administration, the time point of atomization experiment, the incubation period of mice cough and the number of coughs within 2 minutes, respectively. The incubation period of cough refers to the number of seconds from the start of the atomization of ammonia to the occurrence of cough. The performance of coughing in mice is based on contraction of their abdominal muscles (breast contraction) and opening their mouths at the same time. Calculate the mean and standard error of each group of data, and use TTEST to compare the model group with other groups, and P<0.05 is considered as a significant difference.

[7] = aspirin 300 mg/kg oral, 20% yeast s.c., SD rats
[8] = aspirin 300 mg/kg oral, 0.6% acetic acid i.p., within 15 minutes
[9] = aspirin 300 mg/kg oral, LPS 20 µg/kg i.p., SD rats

SMILES: CC(=O)Oc1ccccc1C(=O)O [aspirin, reference compound]
- Body temperature 2 hours after modeling [1, 7]: 37.1±0.1 °C
- Body temperature 4 hours after modeling [1, 7]: 37.0±0.1 °C
- Body temperature 6 hours after modeling [1, 7]: 37.1±0.1 °C
- Body temperature 8 hours after modeling [1, 7]: 37.1±0.1 °C
- Effect on increase in body temperature (in words) ([1]; aspirin 300 mg/kg, 4, 6 and 8 hours after modeling, P<0.05 vs model group): can effectively inhibit the increase in body temperature of model rats
- Writhing incubation period and times of writhing vs model group (in words) ([2]; Aspirin 300 mg/kg, P<0.05): can significantly delay the incubation period of writhing and reduce the times of writhing
- Frequency of writhing [2, 8]: 14.8±3.3^∗∗ times
- Writhing incubation period [2, 8]: 281.6±26.0^∗∗ seconds
- Body temperature 2 hours after modeling [3, 9]: 36.7±0.1 °C
- Body temperature 4 hours after modeling [3, 9]: 36.7±0.1 °C
- Body temperature 6 hours after modeling [3, 9]: 36.6±0.1 °C
- Body temperature 8 hours after modeling [3, 9]: 36.6±0.1 °C
- Effect on increase in body temperature (in words) ([3]; aspirin 300 mg/kg, 2, 4, 6 and 8 hours after modeling, P<0.05 vs model group): can effectively inhibit the increase in body temperature of model rats

SMILES: CCOC(=O)Nc1ccc(NCc2ccc(F)cc2)cc1N [Retigabine, reference compound]
- Cases of deaths ([4]; 10 mice): 0
- Grade IV seizure rate ([4]; 10 mice): 40%*
- mortality rate ([4]; 10 mice): 0%
- Cases of Grade IV ([4]; 10 mice, 15 min observation): 4*
- Grade III seizure incubation period ([4]; mean±SEM): 104±13^∗∗ s
- Grade IV seizure incubation period ([4]; mean±SEM, maximum 900 seconds): 634±109^∗∗ s

SMILES: CN1C(=O)CN=C(c2ccccc2)c2cc(Cl)ccc21 [Diazepam, reference compound]
- Cases of deaths ([5]; 10 mice): 0
- Grade IV seizure rate ([5]; 10 mice): 0** %
- mortality rate ([5]; 10 mice): 0
- Cases of Grade IV ([5]; 10 mice, 30 min observation): 0**
- Grade II seizure incubation period ([5]; mean±SEM): 151±6^∗∗ s
- Grade III seizure incubation period ([5]; mean±SEM): 275±20^∗∗ s
- Grade IV seizure incubation period ([5]; mean±SEM, maximum 1800 seconds): 1800±0^∗∗ s

SMILES: COc1ccc2c(c1)[C@]13CCCC[C@@H]1[C@H](C2)N(C)CC3 [Dextromethorphan, dextromethorphan hydrobromide, reference compound]
- Incubation period (cough) ([6]; Dextromethorphan 15 mg/kg oral, 10% ammonia water 10 seconds, X±SEM): 37.3 ± 2.4 s
- Number of coughs ([6]; Dextromethorphan 15 mg/kg oral, within 2 minutes, X±SEM): 30.2±2.0^∗∗
- Incubation period and number of coughs vs solvent control (in words) ([6]; dextromethorphan 15 mg/kg, P<0.05): significant improvement in the incubation period and the number of coughs
